Laboratory results: paper PMC6442233, “SAR and molecular mechanism studies of monoamine oxidase inhibition by selected chalcone analogs” (Journal of Enzyme Inhibition and Medicinal Chemistry, 2019)

Legend:
human MAO-A = biological target: T1, human MAO-A (Homo sapiens, UniProt P21397); test: IC50 determination for MAO-A inhibition (kynuramine, fluorescence); format: biochemical; conditions: recombinant hMAO-A, kynuramine 50 μM, mean ± SD (triplicate)
T1 construct: purchased Sigma-Aldrich
T1 sequence (P21397 1-527): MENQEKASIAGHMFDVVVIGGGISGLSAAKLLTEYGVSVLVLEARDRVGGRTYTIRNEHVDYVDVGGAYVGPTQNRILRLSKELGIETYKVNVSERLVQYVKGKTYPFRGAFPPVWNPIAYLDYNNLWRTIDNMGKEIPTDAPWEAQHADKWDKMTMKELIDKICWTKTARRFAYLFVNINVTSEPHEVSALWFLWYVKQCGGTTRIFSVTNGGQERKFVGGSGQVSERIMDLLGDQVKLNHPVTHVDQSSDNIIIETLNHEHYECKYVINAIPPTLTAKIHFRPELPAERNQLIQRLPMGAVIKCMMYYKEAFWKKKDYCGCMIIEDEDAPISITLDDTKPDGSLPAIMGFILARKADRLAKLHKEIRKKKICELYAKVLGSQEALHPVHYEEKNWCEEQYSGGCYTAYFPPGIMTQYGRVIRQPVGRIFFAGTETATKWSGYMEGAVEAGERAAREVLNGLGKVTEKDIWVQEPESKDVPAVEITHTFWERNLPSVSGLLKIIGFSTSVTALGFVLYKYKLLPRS
Experimental: (§1) IC50 values for the inhibition of MAO were determined by using the recombinant human MAO-A and MAO-B enzymes (Sigma-Aldrich). Enzyme reactions were performed at a final volume of 200 µL in white 96-well microplates (Eppendorf), with the reaction solvent consisting of potassium phosphate buffer (100 mM, pH 7.4, adjusted to isotonicity with KCl). The reactions contained the nonselective MAO substrate, kynuramine (50 μM), and the test inhibitors at 0.003–100 µM. The test compounds were initially dissolved in DMSO (100%), and after addition to the reactions yielded a concentration of 4% DMSO. Control reactions were included, which contained substrate and 4% DMSO but no test inhibitor. The MAO reactions were started by adding MAO-A (0.0075 mg protein/mL) or MAO-B (0.015 mg protein/mL), and were subsequently incubated for a period of 20 min (37 °C) in a convection oven. A volume of 80 µL 2 N sodium hydroxide was added to the reactions, and the fluorescence intensity of 4-hydroxyquinoline (the end-product of the MAO-catalyzed metabolism of kynuramine) in the reactions was measured at λex 310 and λem 400 nm. To quantify 4-hydroxyquinoline, a calibration curve (linear) ranging from 0.047 to 1.56 μM, was employed. […] These measurements were carried out in triplicate and the IC50 values are presented as the mean ± standard deviation (SD)[18].
(§2) The formation of the dihydropyridinium species (MMDP^+) as a MAO-catalyzed oxidation product of MMTP was monitored at 420 nm. […] Based on this, the IC50 values were determined using kynuramine as a nonselective substrate. The rate of oxidation of kynuramine by MAO was monitored by measuring the fluorescence of the oxidation product, 4-hydroxyquinoline (λex= 310 nm; λem= 400 nm).

human MAO-B = biological target: T2, human MAO-B (Homo sapiens, UniProt P27338); test: IC50 determination for MAO-B inhibition (kynuramine, fluorescence); format: biochemical; conditions: for Selectivity index: SI = IC50(MAO-A)/IC50(MAO-B); for IC50: recombinant hMAO-B, kynuramine 50 μM, mean ± SD (triplicate)
T2 construct: purchased Sigma-Aldrich
T2 sequence (P27338 1-520): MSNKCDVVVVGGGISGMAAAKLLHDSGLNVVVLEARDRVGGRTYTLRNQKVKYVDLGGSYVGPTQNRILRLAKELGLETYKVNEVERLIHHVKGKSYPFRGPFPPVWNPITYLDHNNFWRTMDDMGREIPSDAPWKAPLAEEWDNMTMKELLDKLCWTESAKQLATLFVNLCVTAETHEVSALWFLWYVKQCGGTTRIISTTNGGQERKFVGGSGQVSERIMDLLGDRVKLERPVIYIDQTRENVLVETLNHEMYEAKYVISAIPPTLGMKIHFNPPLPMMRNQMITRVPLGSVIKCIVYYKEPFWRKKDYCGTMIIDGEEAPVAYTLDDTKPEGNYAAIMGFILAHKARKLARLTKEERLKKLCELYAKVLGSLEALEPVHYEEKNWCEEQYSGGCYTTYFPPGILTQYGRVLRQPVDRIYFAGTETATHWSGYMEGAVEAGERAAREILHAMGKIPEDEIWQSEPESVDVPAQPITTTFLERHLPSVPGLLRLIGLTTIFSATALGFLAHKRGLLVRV
Experimental: as §1, §2

## O=C(/C=C/c1cccc2c1OCO2)c1cccc(Cl)c1 [Compound 8, (E)-3-(benzo[d][1,3]dioxol-4-yl)-1–(3-chlorophenyl)prop-2-en-1-one]
Human MAO-A
  IC50: > 100 µM
other
  melting point: 79 to 83 °C
Human MAO-B
  Selectivity index: >1720
  IC50: 0.058 ± 0.009 µM

## O=C(/C=C/c1ccc([N+](=O)[O-])cc1)c1ccc(Cl)cc1 [Compound 13, (E)-1–(4-chlorophenyl)-3–(4-nitrophenyl)prop-2-en-1-one]
Human MAO-A
  IC50: 45.5 ± 2.93 µM
other
  melting point: 162 to 166 °C
Human MAO-B
  IC50: 0.034 ± 0.006 µM

## O=C(/C=C/c1cccc2c1OCO2)c1ccc(Cl)cc1 [Compound 6, (E)-3-(benzo[d][1,3]dioxol-4-yl)-1–(4-chlorophenyl)prop-2-en-1-one]
Human MAO-A
  IC50: 18.1 ± 3.49 µM
other
  melting point: 83 to 87 °C
Human MAO-B
  Selectivity index: 130
  IC50: 0.139 ± 0.019 µM

## CCOc1cccc(/C=C/C(=O)c2ccc(Br)cc2)c1OCC [Compound 22, (E)-1–(4-bromophenyl)-3–(2,3-diethoxyphenyl)prop-2-en-1-one]
Human MAO-A
  IC50: > 100 µM
other
  melting point: 75 to 79 °C
Human MAO-B
  IC50: 15.6 ± 0.803 µM

## COc1cc(Br)ccc1/C=C/C(=O)c1ccc(S(C)(=O)=O)cc1 [Compound 10, (E)-3–(4-bromo-2-methoxyphenyl)-1–(4-(methylsulfonyl)phenyl)prop-2-en-1-one]
Human MAO-A
  IC50: 87.3 ± 9.34 µM
other
  melting point: 199 to 203 °C
Human MAO-B
  Selectivity index: 150
  IC50: 0.582 ± 0.03 µM

## CS(=O)(=O)c1ccc(C(=O)/C=C/c2ccc(Br)cc2)cc1 [Compound 9, (E)-3–(4-bromophenyl)-1–(4-(methylsulfonyl)phenyl)prop-2-en-1-one]
Human MAO-A
  IC50: > 100 µM
other
  melting point: 206 to 210 °C
Human MAO-B
  Selectivity index: >240
  IC50: 0.404 ± 0.064 µM

## CSc1ccc(C(=O)/C=C/c2cccc(Br)c2)cc1 [Compound 11, (E)-3–(3-bromophenyl)-1–(4-(methylthio)phenyl)prop-2-en-1-one]
Human MAO-A
  IC50: 96.6 ± 5.21 µM
other
  melting point: 139 to 143 °C
Human MAO-B
  Selectivity index: 487
  IC50: 0.198 ± 0.012 µM

## CN(C)c1ccc(/C=C/C(=O)c2ccc(Cl)cc2)cc1 [Compound 4, (E)-1–(4-chlorophenyl)-3–(4-(dimethylamino)phenyl)prop-2-en-1-one]
Human MAO-A
  IC50: > 100 µM
Human MAO-B
  Selectivity index: >310
  IC50: 0.321 ± 0.023 µM

## CN(C)c1ccc(/C=C/C(=O)c2ccc(Br)cc2)cc1 [Compound 3, (E)-1–(4-bromophenyl)-3–(4-(dimethylamino)phenyl)prop-2-en-1-one]
Human MAO-A
  IC50: > 100 µM
Human MAO-B
  Selectivity index: >185
  IC50: 0.539 ± 0.058 µM

## CN(C)c1ccc(/C=C/C(=O)c2ccc(C(F)(F)F)cc2)cc1 [Compound 2, (E)-3–(4-(dimethylamino)phenyl)-1–(4-(trifluoromethyl)phenyl)prop-2-en-1-one]
Human MAO-A
  IC50: > 100 µM
Human MAO-B
  Selectivity index: >260
  IC50: 0.383 ± 0.061 µM

## O=C(/C=C/c1ccc(Br)cc1)c1ccc2c(c1)OCO2 [Compound 15, (E)-1-(benzo[d][1,3]dioxol-5-yl)-3–(4-bromophenyl)prop-2-en-1-one]
Human MAO-A
  IC50: 0.173 ± 0.003 µM
other
  melting point: 150 to 153 °C
Human MAO-B
  Selectivity index: 1.7
  IC50: 0.102 ± 0.009 µM

## O=C(/C=C/c1cccc2c1OCO2)c1cccc(Br)c1 [Compound 7, (E)-3-(benzo[d][1,3]dioxol-4-yl)-1–(3-bromophenyl)prop-2-en-1-one]
Human MAO-A
  IC50: > 100 µM
other
  melting point: 107 to 111 °C
Human MAO-B
  Selectivity index: >1230
  IC50: 0.081 ± 0.012 µM

## O=C(/C=C/c1ccc([N+](=O)[O-])cc1)c1ccc(F)cc1 [Compound 12, (E)-1–(4-fluorophenyl)-3–(4-nitrophenyl)prop-2-en-1-one]
Human MAO-A
  IC50: 11.9 ± 0.822 µM
other
  melting point: 165 to 169 °C
Human MAO-B
  Selectivity index: 172
  IC50: 0.069 ± 0.006 µM

## COc1cc(OC)c(/C=C/C(=O)c2ccc(Br)cc2)c(OC)c1 [Compound 18, (E)-1–(4-bromophenyl)-3–(2,4,6-trimethoxyphenyl)prop-2-en-1-one]
Human MAO-A
  IC50: 0.56 ± 0.076 µM
Human MAO-B
  Selectivity index: <0.005
  IC50: > 100 µM

## O=C(/C=C/c1cccc2c1OCO2)c1ccc(Br)cc1 [Compound 5, (E)-3-(benzo[d][1,3]dioxol-4-yl)-1–(4-bromophenyl)prop-2-en-1-one]
Human MAO-A
  IC50: 7.18 ± 0.755 µM
other
  melting point: 96 to 100 °C
Human MAO-B
  Selectivity index: 67
  IC50: 0.106 ± 0.012 µM

## COc1ccccc1/C=C/C(=O)c1ccc(Br)cc1 [Compound 20, (E)-1–(4-bromophenyl)-3–(2-methoxyphenyl)prop-2-en-1-one]
Human MAO-A
  IC50: 5.81 ± 0.878 µM
other
  melting point: 73 to 77 °C
Human MAO-B
  Selectivity index: 5.8
  IC50: 0.999 ± 0.276 µM

## COc1cccc(/C=C/C(=O)c2ccc(Br)cc2)c1OC [Compound 21, (E)-1–(4-bromophenyl)-3–(2,3-dimethoxyphenyl)prop-2-en-1-one]
Human MAO-A
  IC50: 6.59 ± 0.422 µM
other
  melting point: 120 to 124 °C
Human MAO-B
  Selectivity index: 37
  IC50: 0.174 ± 0.015 µM

## CN(C)c1ccc(/C=C/C(=O)c2cccc(C(F)(F)F)c2)cc1 [Compound 1, (E)-3–(4-(dimethylamino)phenyl)-1–(3-(trifluoromethyl)phenyl)prop-2-en-1-one]
Human MAO-A
  IC50: 14.3 ± 1.81 µM
Human MAO-B
  Selectivity index: 116
  IC50: 0.123 ± 0.003 µM

## COc1cc(OC)c(/C=C/C(=O)c2ccc(F)cc2)c(OC)c1 [Compound 19, (E)-1–(4-fluorophenyl)-3–(2,4,6-trimethoxyphenyl)prop-2-en-1-one]
Human MAO-A
  IC50: 0.444 ± 0.039 µM
Human MAO-B
  Selectivity index: <0.004
  IC50: > 100 µM
